Source: patent publication US9682976B2, “Protein kinase C inhibitors and uses thereof” (Rigel Pharmaceuticals, Inc., priority 2012, dated 2017)

Tested on: PKC mediated IL-2 production
Assay: IL-2 ELISA, human primary T cell, anti CD3+CD28+
Type: cell-based
Details: Homo sapiens, T-cell, 24 h, human primary T cells stimulated with αCD3 and αCD28, 24 hours
Protocol: Compounds 1-328 were tested in a whole cell functional assay for PKC mediated IL-2 production as follows. Human primary T cell isolation and culture: Human primary T cells were prepared as follows. Whole blood was obtained from a healthy volunteer, mixed 1:1 with PBS, layered on to Ficoll Hypaque (Amersham Pharmacia Biotech, Piscataway, N.J., Catalog #17-1440-03) in 2:1 blood/PBS:ficoll ratio and centrifuged for 30 minutes at 4° C. at 1750 rpm. The cells at the serum: ficoll interface were recovered and washed twice with 5 volumes of PBS. These freshly isolated human peripheral blood mononuclear cells were cultured in Yssel's medium containing 40 U/ml IL2 in a flask pre-coated with […] αCD3 and 5 μg/ml αCD28 (Anti-Human CD3, BD Pharmingen Catalog #555336, Anti-Human CD28, Beckman Coulter Catalog #IM1376). The cells were stimulated for 3-4 days, then transferred to a fresh flask and maintained in RPMI (RPMI-1640 with L-Glutamine; Mediatech, Inc., Herndon Va., cat. #10-040-CM) with 10% FBS and 40 U/ml IL-2. The primary T-cells were then washed twice with PBS to remove the IL-2.
Primary T cell stimulation and IL2 ELISA: Human primary T cells (100,000 cells per well) were pre-incubated with or without test compound in Yssel's medium for 1 hour at 37° C. Cells were then stimulated by transferring them to round-bottom 96-well plates pre-coated with […] αCD3 and 5 μg/ml αCD28. For counter assay, cells were instead stimulated by adding 8× stock solutions of PMA and ionomycin in Yssels (for final concentrations of 0.5 ng/ml PMA and 0.1 uM ionomycin, both from Calbiochem). Cells were incubated at 37° C. for 24 hours before 100 μL supernatants were harvested for quantification of IL-2 by ELISA using Human IL-2 Duoset ELISA Kit from R and D Systems, Cat. # DY202E.

`Cn1nnn(-c2cc(Nc3ncc(F)c(N[C@@H]4C[C@@H]5CCCN5C(C)(C)C4)n3)c(F)cc2OCC2CCO2)c1=O` (stereo partly drawn) [Compound 167, 1-(5-((4-(((7R,8aS)-5,5-dimethyloctahydroindolizin-7-yl)amino)-5-fluoropyrimidin-2-yl)amino)-4-fluoro-2-(oxetan-2-ylmethoxy)phenyl)-4-methyl-1,4-dihydro-5H-tetrazol-5-one] and `CCN(CC)CCOc1cc(F)c(Nc2ncc(F)c(N[C@@H]3C[C@@H]4CCCN4C(C)(C)C3)n2)cc1-n1nnn(C)c1=O` [Compound 194, 1-(2-(2-(diethylamino)ethoxy)-5-((4-(((7R,8aS)-5,5-dimethyloctahydroindolizin-7-yl)amino)-5-fluoropyrimidin-2-yl)amino)-4-fluorophenyl)-4-methyl-1,4-dihydro-5H-tetrazol-5-one] fall in the same range of EC50: 0.1 to 0.5 µM for the first, 0.1 to 0.5 µM for the second.

First: COCC1(COC)Oc2ccc(Nc3ncc(F)c(N[C@@H]4C[C@@H]5CCCN5C(C)(C)C4)n3)cc2-n2c1nn(C)c2=O [Compound 296, 5-fluoro-N2-(1H-2,4-dihydron-2-methyl-4,4-di(methoxymethyl)[1,2,4]triazolo[3,4-c][1,4]benzoxazin-1-one-8-yl)-N4-((7R,8aS)-octahydro-5,5-dimethylindolizin-7-yl)pyrimidine-2,4-diamine]
Second: Cn1nc2n(c1=O)-c1cc(Nc3ncc(F)c(N[C@@H]4C[C@@H]5CCCN5C(C)(C)C4)n3)ccc1OC21CCOCC1 [Compound 283, 5-fluoro-N2-(1H-2,4-dihydron-spiro(2H-1,4-benzoxazine-4,4′-[4H]pyran)-2-methyl-[1,2,4]triazolo[3,4-c][1,4]benzoxazin-1-one-8-yl)-N4-((7R,8aS)-octahydro-5,5-dimethylindolizin-7-yl)pyrimidine-2,4-diamine]
The EC50 of the first is higher: 0.5 to 1 µM for the first, 0.1 to 0.5 µM for the second. The second is the more potent here.

First: CC1(C)C[C@H](Nc2nc(Nc3ccc(OCCO)c(F)c3)ncc2F)C[C@@H]2CCCN21 [Compound 130, 2-(4-((4-(((7R,8aS)-5,5-dimethyloctahydroindolizin-7-yl)amino)-5-fluoropyrimidin-2-yl)amino)-2-fluorophenoxy)ethan-1-ol]
Second: CC1(C)C[C@H](Nc2nc(Nc3ccc(OCCO)c(C(F)(F)F)c3)ncc2F)C[C@@H]2CCCN21 [Compound 131, 2-(4-((4-(((7R,8aS)-5,5-dimethyloctahydroindolizin-7-yl)amino)-5-fluoropyrimidin-2-yl)amino)-2-(trifluoromethyl)phenoxy)ethan-1-ol]
The EC50 of the first is higher: 0.5 to 1 µM for the first, under 0.1 µM for the second.

`CC1(C)C[C@H](Nc2nc(Nc3ccc(N4CCN(S(C)(=O)=O)CC4)c(C#N)c3)ncc2F)C[C@@H]2CCCN21` [Compound 103, 5-((4-(((7R,8aS)-5,5-Dimethyloctahydroindolizin-7-yl)amino)-5-fluoropyrimidin-2-yl)amino)-2-(4-(methylsulfonyl)piperazin-1-yl)benzonitrile] and `CC1(C)CC(Nc2nc(Nc3ccc(O[C@H]4CCOC4)c(C#N)c3)ncc2F)CC2CCCN21` (mixture of isomers) [Compound 60, 2-((S)-tetrahydrofuran-3-yloxy)-5-(5-fluoro-4-(octahydro-5,5-dimethylindolizin-7-ylamino)pyrimidin-2-ylamino)benzonitrile] fall in the same range of EC50: 0.1 to 0.5 µM for the first, 0.1 to 0.5 µM for the second.

First: COc1cc(-n2nnnc2C)c(F)c(Nc2ncc(F)c(N[C@@H]3C[C@@H]4CCCN4C(C)(C)C3)n2)c1F [Compound 243, 5-fluoro-N2-(2,6-difluoro-3-methoxy-5-(5-methyl-1H-tetrazol-1-yl)phenyl)-N4-((7R,8aS)-octahydro-5,5-dimethylindolizin-7-yl)pyrimidine-2,4-diamine]
Second: CC1(C)Oc2ccc(Nc3ncc(F)c(N[C@@H]4C[C@@H]5CCCN5C(C)(C)C4)n3)cc2-n2nnnc21 [Compound 136, N2-(4,4-dimethyl-4H-benzo[b]tetrazolo[1,5-d][1,4]oxazin-8-yl)-N4-((7R,8aS)-5,5-dimethyloctahydroindolizin-7-yl)-5-fluoropyrimidine-2,4-diamine]
The EC50 of the first is higher: 0.5 to 1 µM for the first, under 0.1 µM for the second.

First: CC1(C)C[C@H](Nc2nc(Nc3ccc(OCC4(CO)COC4)c(C#N)c3)ncc2F)C[C@@H]2CCCN21 [Compound 174, 5-(4-((7R,8aS)-5,5-dimethyloctahydroindolizin-7-ylamino)-5-fluoropyrimidin-2-ylamino)-2-((3-(hydroxymethyl)oxetan-3-yl)methoxy)benzonitrile]
Second: CC1(COc2ccc(Nc3ncc(F)c(N[C@@H]4C[C@@H]5CCCN5C(C)(C)C4)n3)cc2C#N)COC1 [Compound 173, 5-(4-((7R,8aS)-5,5-dimethyloctahydroindolizin-7-ylamino)-5-fluoropyrimidin-2-ylamino)-2-((3-methyloxetan-3-yl)methoxy)benzonitrile]
The EC50 of the first is higher: 0.5 to 1 µM for the first, 0.1 to 0.5 µM for the second.

Compared with `CNc1nc2cc(Nc3ncc(F)c(N[C@@H]4C[C@@H]5CCCN5C(C)(C)C4)n3)c(F)cc2o1` [Compound 253, N5-(4-((7R,8aS)-octahydro-5,5-dimethylindolizin-7-ylamino)-5-fluoropyrimidin-2-yl)-6-fluoro-N2-methylbenzo[d]oxazole-2,5-diamine], `CCOC(=O)C(C)Oc1cc(F)c(Nc2ncc(F)c(N[C@@H]3C[C@@H]4CCCN4C(C)(C)C3)n2)cc1-n1nnn(C)c1=O` (stereo partly drawn) [Compound 184, ethyl 2-(4-((4-(((7R,8aS)-5,5-dimethyloctahydroindolizin-7-yl)amino)-5-fluoropyrimidin-2-yl)amino)-5-fluoro-2-(4-methyl-5-oxo-4,5-dihydro-1H-tetrazol-1-yl)phenoxy)propanoate] is lower in EC50: 1 to 10 µM for the first, 0.1 to 0.5 µM for the second.

`CC1(C)CC[C@H]2C[C@@H](Nc3nc(Nc4ccc(N5CCOCC5)c(OC(F)F)c4)ncc3F)CCN21` [Compound 297] and `CC1(C)CC[C@H]2C[C@@H](Nc3nc(Nc4ccc(OC5CC(O)C5)c(Cl)c4)ncc3F)CCN21` (stereo partly drawn) [Compound 312, 3-(2-Chloro-4-((4-(((7S,8aS)-3,3-dimethyloctahydroindolizin-7-yl)amino)-5-fluoropyrimidin-2-yl)amino)phenoxy)cyclobutan-1-ol] fall in the same range of EC50: 0.1 to 0.5 µM for the first, 0.1 to 0.5 µM for the second.

`Cn1nnn(-c2cc(Nc3ncc(Cl)c(N[C@@H]4C[C@@H]5CCCN5C(C)(C)C4)n3)c(F)cc2OCCO)c1=O` [Compound 237, 1-(5-((5-chloro-4-(((7R,8aS)-5,5-dimethyloctahydroindolizin-7-yl)amino)pyrimidin-2-yl)amino)-4-fluoro-2-(2-hydroxyethoxy)phenyl)-4-methyl-1,4-dihydro-5H-tetrazol-5-one] and `CC(O)COc1cc(F)c(Nc2ncc(Cl)c(N[C@@H]3C[C@@H]4CCCN4C(C)(C)C3)n2)cc1-n1nnn(C)c1=O` (stereo partly drawn) [Compound 236, 1-(5-((5-chloro-4-(((7R,8aS)-5,5-dimethyloctahydroindolizin-7-yl)amino)pyrimidin-2-yl)amino)-4-fluoro-2-(2-hydroxypropoxy)phenyl)-4-methyl-1,4-dihydro-5H-tetrazol-5-one] cannot be ordered by EC50: under 0.1 µM for the first, under 0.1 µM for the second.

Compared with `Cn1nnn(-c2cc(Nc3ncc(C#N)c(N[C@@H]4C[C@@H]5CCCN5C(C)(C)C4)n3)c(F)cc2OC2COC2)c1=O` [Compound 113, 4-(((7R,8aS)-5,5-dimethyloctahydroindolizin-7-yl)amino)-2-((2-fluoro-5-(4-methyl-5-oxo-4,5-dihydro-1H-tetrazol-1-yl)-4-(oxetan-3-yloxy)phenyl)amino)pyrimidine-5-carbonitrile], `CC1(C)C[C@H](Nc2nc(Nc3cc(-n4nnnc4C4CC4)ccc3F)ncc2Cl)C[C@@H]2CCCN21` [Compound 164, 5-chloro-N2-(5-(5-cyclopropyl-1H-tetrazol-1-yl)-2-fluorophenyl)-N4-((7R,8aS)-5,5-dimethyloctahydroindolizin-7-yl)pyrimidine-2,4-diamine] is lower in EC50: 0.1 to 0.5 µM for the first, under 0.1 µM for the second.

Compared with `COCCOc1ccc(Nc2ncc(F)c(N[C@@H]3C[C@@H]4CCCN4C(C)(C)C3)n2)cc1-n1cnnn1` [Compound 202, N4-((7R,8aS)-5,5-dimethyloctahydroindolizin-7-yl)-5-fluoro-N2-(4-(2-methoxyethoxy)-3-(1H-tetrazol-1-yl)phenyl)pyrimidine-2,4-diamine], `CC1(C)CC[C@H]2C[C@@H](Nc3nc(Nc4ccc(OC5CC(OCc6ccccc6)C5)c(Cl)c4)ncc3F)CCN21` (stereo partly drawn) [Compound 310, N2-(4-(3-(Benzyloxy)cyclobutoxy)-3-chlorophenyl)-N4-((7S,8aS)-3,3-dimethyloctahydroindolizin-7-yl)-5-fluoropyrimidine-2,4-diamine] is higher in EC50: under 0.1 µM for the first, 1 to 10 µM for the second.

Same assay, conditions: human primary T cells stimulated with αCD3 and αCD28, 24 hours

`[2H]C([2H])(O)C([2H])([2H])Oc1ccc(Nc2ncc(F)c(N[C@@H]3C[C@@H]4CCCN4C(C)(C)C3)n2)cc1C#N` [Compound 219, 5-((4-(((7R,8aS)-5,5-dimethyloctahydroindolizin-7-yl)amino)-5-fluoropyrimidin-2-yl)amino)-2-(2-hydroxyethoxy-1,1,2,2-d4)benzonitrile] showed an EC50 of 0.1 to 0.5 µM.
